Experiments:
[1] = not told for nicotinamide; caffeine D in same system by direct partitioning in a separatory funnel with UV absorbance
[2] = not told

NC(=O)c1cccnc1
partition coefficient (concentration ratio) [1]: 0.19 concentration ratio (mg/ml per mg/ml)

Oc1ccc(N=Nc2ccccc2)cc1
partition coefficient (concentration ratio) [2]: ca. 0.50 concentration ratio (mg/ml per mg/ml)

CC1(C)Nc2cccc3c(N=Nc4ccc(N=Nc5ccccc5)c5ccccc45)ccc(c23)N1
partition coefficient (concentration ratio) [2]: ca. 2.0 concentration ratio (mg/ml per mg/ml)

Source: patent US3989466
